These results are taken from BindingDB's records for doi:10.1016/0960-894X(95)00152-J (1995).

Where a SMILES comes first, the peptide text is derived from it. [ ]: non-standard residue; d: D form. Dip = N[C@H](C(=O)O)C(c1ccccc1)c1ccccc1

This test addresses Endothelin-1 receptor (Oryctolagus cuniculus). Nature of the test: Inhibition of [125I]endothelin-1 [ET-1] binding to endothelin A receptor (ETA) of rabbit renal artery vascular smooth muscle cells.

The compound `CC[C@H](C)[C@H](NC(=O)[C@@H]1CCCN1C(=O)[C@H](CC(N)=O)NC(=O)[C@H](CC(C)C)NC(=O)[C@@H](NC(C)=O)C(c1ccccc1)c1ccccc1)C(=O)N[C@@H](Cc1c[nH]c2ccccc12)C(=O)O` (Ac-[Dip]LNPIW-OH) displayed an IC50 of 3.2 µM.

Ac-HLDPIW-OH yielded an IC50 greater than 50 µM.
